These results are taken from ChEMBL document CHEMBL3352804, “One-pot synthesis of polyunsaturated fatty acid amides with anti-proliferative properties” (Bioorg Med Chem Lett, 2014).

The structures appear in SMILES notation.

The first assay has as its system A549. In words: Growth inhibition of human A549 cells at 3 uM after 48 hrs by trypan blue dye exclusion method. Conditions: A549, 48 h, read-out: GI. The assay is classed as functional.
For the compound `CC/C=C\C/C=C\C/C=C\C/C=C\C/C=C\CCCCCC(=O)NC(CO)CO`, the inhibition of growth at 3 µM worked out at 97.4%.
On the same count and under the same terms, the figure for `CC/C=C\C/C=C\C/C=C\C/C=C\C/C=C\C/C=C\CCC(=O)N[C@H](C)CO` is 98.3%; for `CC/C=C\C/C=C\C/C=C\C/C=C\C/C=C\C/C=C\CCC(=O)NC[C@H](O)CO` it is 42.3%; for `CC/C=C\C/C=C\C/C=C\C/C=C\C/C=C\C/C=C\CCC(=O)OCC(O)CO` (stereo unspecified) it is 59.1%.
The same measure, in the same setting: the value for `CC/C=C\C/C=C\C/C=C\C/C=C\C/C=C\CCCCCC(=O)NC[C@H](O)CO` was 31.6%; that for `CC/C=C\C/C=C\C/C=C\C/C=C\C/C=C\CCCC(=O)NCCCNC` was 67.8%; that for `CC/C=C\C/C=C\C/C=C\C/C=C\C/C=C\C/C=C\CCC(=O)NCC(O)CNC(=O)CC/C=C\C/C=C\C/C=C\C/C=C\C/C=C\C/C=C\CC` was 83.8%.
Same read-out and setting: the figure for `CC/C=C\C/C=C\C/C=C\C/C=C\C/C=C\CCCC(=O)NC(C)CO` (stereo unspecified) is 98.4%.
For `CC/C=C\C/C=C\C/C=C\C/C=C\C/C=C\CCCC(=O)OCC(O)CO` (stereo unspecified), the inhibition of growth at 3 µM came out at 51.4%.
As for `CC/C=C\C/C=C\C/C=C\C/C=C\C/C=C\C/C=C\CCC(=O)NCC(O)CN` (stereo unspecified), the inhibition of growth at 3 µM was 38.3%.
As to `CC/C=C\C/C=C\C/C=C\C/C=C\C/C=C\CCCCCC(=O)NCC(O)CNC(=O)CCCCC/C=C\C/C=C\C/C=C\C/C=C\C/C=C\CC`, the inhibition of growth at 3 µM was found to be 97.7%.
Take `CC/C=C\C/C=C\C/C=C\C/C=C\C/C=C\CCCCCC(=O)NCCO`: the inhibition of growth at 3 µM stood at 96.9%.
Still for that read-out and setting: the value for `CC/C=C\C/C=C\C/C=C\C/C=C\C/C=C\C/C=C\CCC(=O)NCC(O)CO` (stereo unspecified) was 88.7%; that for `CC/C=C\C/C=C\C/C=C\C/C=C\C/C=C\CCCCCC(=O)OCC(O)CO` (stereo unspecified) was 74.5%.
The same measure, in the same setting: the figure for `CC/C=C\C/C=C\C/C=C\C/C=C\C/C=C\C/C=C\CCC(=O)NCCNC(=O)CC/C=C\C/C=C\C/C=C\C/C=C\C/C=C\C/C=C\CC` is 13%.
Still for that read-out and setting: the value for `CC/C=C\C/C=C\C/C=C\C/C=C\C/C=C\C/C=C\CCC(=O)NC(CO)CO` was 77.4%.
`CC/C=C\C/C=C\C/C=C\C/C=C\C/C=C\C/C=C\CCC(=O)NC[C@@H](O)CO`: the inhibition of growth at 3 µM is 48.1%.
For `CC/C=C\C/C=C\C/C=C\C/C=C\C/C=C\C/C=C\CCC(=O)NC(CO)C(=O)O` (stereo unspecified), the inhibition of growth at 3 µM amounted to 68.7%.
Regarding `CC/C=C\C/C=C\C/C=C\C/C=C\C/C=C\CCCC(=O)OCCCN(C)C`, the inhibition of growth at 3 µM was 95%.
On the same count and under the same terms, the value for `CC/C=C\C/C=C\C/C=C\C/C=C\C/C=C\CCCC(=O)NCCO` was 70.9%.
Consider `CC/C=C\C/C=C\C/C=C\C/C=C\C/C=C\C/C=C\CCC(=O)NCCO`, for which the inhibition of growth at 3 µM worked out at 29.3%.
The same measure, in the same setting: the value for `CC/C=C\C/C=C\C/C=C\C/C=C\C/C=C\CCCCCC(=O)NC[C@@H](O)CO` was 47.4%; that for `CC/C=C\C/C=C\C/C=C\C/C=C\C/C=C\CCCC(=O)NC(CO)CO` was 84.2%.

The subject of the next assay is A549. In words: Growth inhibition of human A549 cells after 48 hrs by trypan blue dye exclusion method. The assay is classed as functional, cell-based. The following applies: A549, 48 h.
Compound `CC/C=C\C/C=C\C/C=C\C/C=C\C/C=C\C/C=C\CCC(=O)N[C@H](C)CO` registered an IC50 of 250 nM.
Still for that read-out and setting: the figure for `CC/C=C\C/C=C\C/C=C\C/C=C\C/C=C\C/C=C\CCC(=O)OCC(O)CO` (stereo unspecified) is 1500 nM; for `CC/C=C\C/C=C\C/C=C\C/C=C\C/C=C\C/C=C\CCC(=O)NC(CO)CO` it is 480 nM.

A word on the IC50: it is the concentration that inhibits the measured activity by half. A high value points to weaker potency in that assay.
